Target: T1, 3-hydroxy-3-methylglutaryl-coenzyme A reductase (Rattus norvegicus, UniProt P51639)
T1 sequence (P51639 whole entry): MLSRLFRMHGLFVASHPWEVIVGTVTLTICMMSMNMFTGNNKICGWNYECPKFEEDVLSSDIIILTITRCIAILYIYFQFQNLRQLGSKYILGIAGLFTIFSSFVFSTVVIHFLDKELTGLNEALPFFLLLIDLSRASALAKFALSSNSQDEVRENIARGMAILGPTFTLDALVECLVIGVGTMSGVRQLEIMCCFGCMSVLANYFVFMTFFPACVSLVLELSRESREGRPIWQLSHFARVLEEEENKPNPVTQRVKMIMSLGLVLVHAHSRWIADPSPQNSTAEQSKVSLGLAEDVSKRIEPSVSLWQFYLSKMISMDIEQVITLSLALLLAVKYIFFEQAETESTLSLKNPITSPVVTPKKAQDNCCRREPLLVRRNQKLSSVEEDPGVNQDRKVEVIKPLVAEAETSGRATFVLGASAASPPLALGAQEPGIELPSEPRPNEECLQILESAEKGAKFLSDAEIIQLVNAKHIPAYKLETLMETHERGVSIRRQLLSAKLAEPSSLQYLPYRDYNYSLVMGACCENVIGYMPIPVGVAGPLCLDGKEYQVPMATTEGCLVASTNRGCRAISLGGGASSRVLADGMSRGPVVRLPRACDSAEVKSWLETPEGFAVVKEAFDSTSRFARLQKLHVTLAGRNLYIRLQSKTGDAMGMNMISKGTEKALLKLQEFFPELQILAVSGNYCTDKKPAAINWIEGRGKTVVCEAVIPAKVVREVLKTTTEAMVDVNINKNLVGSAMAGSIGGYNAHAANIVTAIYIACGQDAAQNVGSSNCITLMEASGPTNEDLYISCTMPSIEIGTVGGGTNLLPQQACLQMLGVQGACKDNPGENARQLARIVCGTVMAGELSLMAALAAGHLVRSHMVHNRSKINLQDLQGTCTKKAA
Assay: Compound was tested for inhibitory activity against rat hepatic microsomal HMG-CoA reductase; lacked significant inhibitory activity
Details: read-out: I50

Row | IC50 [µM] | Structure (SMILES)
1 | > 1000 | CC(C)[C@@H](O)C(=O)NCCC(=O)NCCNCC(O)CC(O)CC(=O)O (stereo partly drawn)
2 | > 1000 | CC(C)[C@@H](O)C(=O)NCCC(=O)NCCNC(=O)C[C@@H](O)CC(=O)O
3 | > 1000 | CC(C)[C@@H](O)C(=O)NCCC(=O)NCCNC(=O)C[C@@](C)(O)CC(=O)O

From ChEMBL document CHEMBL1125857, “Synthesis of substrate-based inhibitors of HMG CoA reductase (II)” (Bioorg Med Chem Lett, 1991)
